Laboratory results reported in paper PMC10870767, “Extraction, Purification, and Characterization of Olive (Olea europaea L., cv. Chemlal) Polyphenol Oxidase” (Journal of Agricultural and Food Chemistry, 2024).
Where “and” joins values, the source holds several entries; their conditions need not be identical. Identical values can stand only once. Like-named read-outs stand apart in the source and are kept apart here.

Key:
[1] = system: OePPO1; assay: Effect of metal ions on OePPO1 activity; assay type: biochemical, Olea europaea L., cv. Chemlal
[2] = system: mango PPO; settings: cited from earlier work; for residual activity: 10 mM inhibitor
[3] = system: apricot PPO; settings: cited from earlier work; for residual activity: 10 mM inhibitor
[4] = system: blueberry PPO; parameters: method as in PMID 27719900; settings: cited from earlier work
[5] = target: T1, olive polyphenol oxidase (OePPO) (Olea europaea, UniProt A0A8S0TLT4); assay: Effect of inhibitors on OePPO activity; assay type: biochemical, Olea europaea L., cv. Chemlal; settings: 10 mM catechol; for IC100: read-out: concentration for complete suppression/inhibition of OePPO activity
Protocol: (§1) OePPO activity measurements were carried out spectrophotometrically at 25 °C using a 96-well microplate reader (Infinite M200, Tecan). The assay mixture, with a volume of 200 μL, was monitored for the increase in absorbance at 410 nm as the enzyme converted catechol, starting from ∼25 s after mixing (time required for pipetting and initiating the microplate reader) and continuing until the reaction curve reached a plateau phase (after ∼15 min). The standard reaction mixture consisted of 0.5 μg of enzyme and 10 mM catechol in 50 mM sodium phosphate buffer (pH 7.5) along with the optimal concentration of SDS (5 mM) as determined. […] OePPO activity was assessed by calculating the slope of the initial linear segment of the experimental curves, where the absorbance was plotted against time. The activity was expressed in U/mg, with one unit of enzymatic activity (U) defined as the amount of enzyme that catalyzed the formation of 1 μmol of quinones per minute (1 U = 1 μmol/min). All experiments were conducted in triplicate, and the protein concentrations in the enzyme solutions were determined using the Bradford method[15] with bovine serum albumin as a standard.
The optimum concentration range for each inhibitor was established through preliminary experiments (data not shown). OePPO activity was measured using the same assay conditions previously described, and the results were expressed as the percentage of residual activity relative to the control mixture (100%) without inhibitors. The half inhibitory concentration (IC50) was determined for each inhibitor using nonlinear regression.

[6] = system: banana PPO; parameters: method as in doi:10.1021/jf980473d; settings: cited from earlier work
[7] = target: T1, olive polyphenol oxidase (OePPO); assay: Effect of SDS on OePPO activity (activation of latent enzyme); assay type: biochemical, Olea europaea L., cv. Chemlal
Protocol: as §1
The effect of different concentrations of SDS (0–100 mM) on OePPO activity was investigated.

[8] = target: T1, olive polyphenol oxidase (OePPO); assay: Enzyme kinetics and substrate specificity of purified OePPO; assay type: biochemical, Olea europaea L., cv. Chemlal; settings: for kcat: substrate of purified OePPO, 50 mM sodium phosphate buffer pH 7.5, 5 mM SDS, 25 °C
Protocol: as §1

[9] = 1 mM metal salt, 50 mM sodium citrate buffer, 5 mM SDS, control without metal ions = 100%
[10] = 5 mM metal salt, 50 mM sodium citrate buffer, 5 mM SDS, control without metal ions = 100%
[11] = 10 mM metal salt, 50 mM sodium citrate buffer, 5 mM SDS, control without metal ions = 100%
[12] = 100 mM metal salt, 50 mM sodium citrate buffer, 5 mM SDS, control without metal ions = 100%

T1 sequence (A0A8S0TLT4 entry or part of it): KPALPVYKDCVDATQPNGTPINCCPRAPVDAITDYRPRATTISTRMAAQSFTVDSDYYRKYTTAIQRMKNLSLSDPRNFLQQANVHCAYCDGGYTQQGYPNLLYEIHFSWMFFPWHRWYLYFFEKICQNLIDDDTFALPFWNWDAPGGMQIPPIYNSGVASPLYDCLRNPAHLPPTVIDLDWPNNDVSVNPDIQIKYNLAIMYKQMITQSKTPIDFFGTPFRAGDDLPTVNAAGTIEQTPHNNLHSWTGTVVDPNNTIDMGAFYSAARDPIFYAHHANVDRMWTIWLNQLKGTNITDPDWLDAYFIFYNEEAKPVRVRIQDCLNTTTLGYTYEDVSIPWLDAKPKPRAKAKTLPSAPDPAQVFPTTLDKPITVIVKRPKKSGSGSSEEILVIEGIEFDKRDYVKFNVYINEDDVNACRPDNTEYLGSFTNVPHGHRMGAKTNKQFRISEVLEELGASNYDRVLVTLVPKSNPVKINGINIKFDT

SMILES	relative activity [1, 9]	relative activity [1, 10]	relative activity [1, 11]	relative activity [1, 12]	further results
[Cl][Al]([Cl])[Cl] [AlCl3]	98 ± 1.9%	90 ± 1.2%	82 ± 2.7%	0.0 ± 0.00%	–
[Ca+2].[Cl-].[Cl-] [CaCl2]	103 ± 2.0%	96 ± 2.8%	93 ± 2.9%	66 ± 4.1%	–
[Cl][Cr]([Cl])[Cl] [CrCl3]	80 ± 2.8%	63 ± 1.6%	0.0 ± 0.00%	0.0 ± 0.00%	relative activity ([1]; 1 mM metal salt, 50 mM sodium citrate buffer, 5 mM SDS, control without metal ions = 100%, listed as Cr^3+): 80%; relative activity ([1]; 10 mM metal salt, 50 mM sodium citrate buffer, 5 mM SDS, control without metal ions = 100%, listed as Cr^3+): complete suppression
O=S(=O)([O-])[O-].[Cu+2] [CuSO4]	106 ± 4.3%	112 ± 1.9%	110 ± 3.9%	37 ± 2.6%	relative activity ([1]; 5 mM metal salt, 50 mM sodium citrate buffer, 5 mM SDS, control without metal ions = 100%, listed as Cu^2+): 112%; relative activity ([1]; 100 mM metal salt, 50 mM sodium citrate buffer, 5 mM SDS, control without metal ions = 100%, listed as Cu^2+): drastically reduced
[Cl][Fe][Cl] [FeCl2]	87 ± 2.3%	74 ± 1.7%	56 ± 2.0%	22 ± 6.6%	relative activity ([1]; 1 mM metal salt, 50 mM sodium citrate buffer, 5 mM SDS, control without metal ions = 100%, listed as Fe^2+): 87%
[Cl-].[K+] [KCl]	98 ± 3.8%	98 ± 1.4%	96 ± 2.1%	64 ± 2.8%	–
O=c1cc(CO)occ1O [Kojic acid, kojic acid]	–	–	–	–	inhibition of enzymatic browning ([2]; 10 mM): effectively inhibiting enzymatic browning
N[C@@H](CS)C(=O)O [L-cysteine]	–	–	–	–	concentration with complete inhibitory effect [3]: around 1 mM; concentration with complete inhibitory effect [2]: around 1 mM; concentration with complete inhibitory effect [4]: around 1 mM
[Cl-].[Cl-].[Mg+2] [MgCl2]	100 ± 2.7%	97 ± 1.4%	95 ± 1.8%	72 ± 3.4%	–
[Cl][Mn][Cl] [MnCl2]	99 ± 2.1%	92.1 ± 0.84%	60 ± 3.2%	0.0 ± 0.00%	–
NC(=S)Nc1ccccc1 [N-phenylthiourea]	–	–	–	–	concentration that completely inhibited enzymatic activity ([5]; pH 7.5, 5 mM SDS): 50 µM
[Cl-].[Na+] [NaCl]	–	–	–	–	relative activity [1]: 101 ± 3.1% and 99 ± 2.3% and 103 ± 2.8% and 88 ± 5.4%
O=S(=O)([O-])[O-].[Ni+2] [NiSO4]	103 ± 2.3%	101.3 ± 0.57%	92 ± 1.7%	88 ± 4.3%	–
CCCCCCCCCCCCOS(=O)(=O)[O-].[Na+] [SDS, sodium lauryl sulfate]	–	–	–	–	SDS concentration for full activation of latent PPO [3]: 2 mM; SDS concentration for full activation of latent PPO [6]: 2 mM; SDS concentration necessary to achieve full activity [2]: 6.93 mM; increase of OePPO activity versus absence of SDS ([7]; 5 mM SDS, phosphate buffer pH 7.5): ~10 fold; OePPO activity compared to the absence of SDS ([7]; 100 mM SDS, phosphate buffer pH 7.5): three times the activity; optimal SDS concentration for full activation of latent OePPO ([7]; phosphate buffer pH 7.5, catechol): 5 mM
[Cl-].[Cl-].[Zn+2] [ZnCl2]	99 ± 1.2%	108.9 ± 0.92%	107.3 ± 0.54%	15 ± 5.1%	relative activity ([1]; 5 mM metal salt, 50 mM sodium citrate buffer, 5 mM SDS, control without metal ions = 100%, listed as Zn^2+): 109%; relative activity ([1]; 100 mM metal salt, 50 mM sodium citrate buffer, 5 mM SDS, control without metal ions = 100%, listed as Zn^2+): drastically reduced
O=C1O[C@H]([C@@H](O)CO)C(O)=C1O [ascorbic acid]	–	–	–	–	concentration with complete inhibitory effect [3]: around 1 mM; IC100 ([5]; pH 7.5, 5 mM SDS): 1000 µM; concentration with complete inhibitory effect [2]: around 1 mM; concentration with complete inhibitory effect [4]: around 1 mM
O=C(O)CC(O)(CC(=O)O)C(=O)O [citric acid]	–	–	–	–	residual activity [3]: exceeding 80%; residual activity [2]: > 60%
NCCc1ccc(O)c(O)c1 [dopamine]	–	–	–	–	kcat [8]: 13.98 ± 0.07 s^–1
N[C@@H](CCC(=O)N[C@@H](CS)C(=O)NCC(=O)O)C(=O)O [glutathione, reduced, reduced glutathione]	–	–	–	–	concentration with complete inhibitory effect [3]: around 1 mM; IC50 ([5]; 50 mM sodium phosphate buffer pH 7.5, 5 mM SDS, 25 °C, nonlinear regression): 62 ± 3 µM; concentration for complete suppression/inhibition of OePPO activity ([5]; pH 7.5, 5 mM SDS): 1 mM; concentration with complete inhibitory effect [2]: around 1 mM; concentration with complete inhibitory effect [4]: around 1 mM
O=S(O)S(=O)(=O)O [sodium metabisulfite]	–	–	–	–	concentration with complete inhibitory effect [3]: around 1 mM; IC100 ([5]; pH 7.5, 5 mM SDS): 1000 µM; concentration with complete inhibitory effect [2]: around 1 mM; concentration with complete inhibitory effect [4]: around 1 mM
O=C(O)CCC(=O)O [succinic acid]	–	–	–	–	residual activity [3]: exceeding 80%; residual activity [2]: > 60%
NCCc1ccc(O)cc1 [tyramine]	–	–	–	–	kcat [8]: 0.093 ± 0.005 s^–1
OCCc1ccc(O)cc1 [tyrosol]	–	–	–	–	processed faster than tyramine ([8]; monophenolase activity, compared with tyramine): > 10 times
